≈ marks a conversion by molar mass, not a printed value. Calls of active or inactive are those of the source. The calls are words filed in the database; no cut-off is given here. Some results are limits rather than exact numbers.

This is an account of results in ChEMBL document CHEMBL4177619, “Novel potentially antifungal hybrids of 5-flucytosine and fluconazole: Design, synthesis and bioactive evaluation” (2017).

The subject of assay [1] is Candida albicans. The experiment in a line: Antifungal activity against Candida albicans ATCC 90023 after 24 hrs by micro broth dilution method. In kind it is functional. Conditions: ATCC 90023, 24 h.
Another assay concerns Candida parapsilosis. The experiment in a line: Antifungal activity against Candida parapsilosis ATCC 22019 after 24 hrs by micro broth dilution method. In kind it is functional. Conditions: Lodderomyces parapsilosis, ATCC 22019, 24 h.
For assay [2], the system named is Candida albicans. The experiment in a line: Antifungal activity against Candida albicans after 24 hrs by micro broth dilution method. In kind it is functional.
In the next assay the test system is Candida tropicalis. The experiment in a line: Antifungal activity against Candida tropicalis after 24 hrs by micro broth dilution method. In kind it is functional.
Another assay has as its system Aspergillus fumigatus. The assay can be described thus: Antifungal activity against Aspergillus fumigatus after 24 hrs by micro broth dilution method. In kind it is functional.
For assay [3], the system named is Candida albicans. The assay can be described thus: Induction of inner membrane permeabilization in Candida albicans assessed as propidium iodide uptake at 12 times MIC up to 105 mins by fluorescence assay. In kind it is functional, organism-based.
In assay [4] the test system is Candida albicans. The assay can be described thus: Fungicidal activity against Candida albicans assessed as log reduction in fungal load at 4 time MIC up to 1 hr by time kill assay. In kind it is functional.
For assay [5], the system named is Calf thymus DNA. The assay can be described thus: Binding affinity to calf thymus DNA assessed as increase in maximum absorption of DNA by UV-Visible spectrometric analysis. The note with it: Bos taurus. In kind it is nucleic-acid assay.
The subject of assay [6] is Calf thymus DNA. The assay can be described thus: Binding affinity to calf thymus DNA assessed as hyperchromic effect up to 2 x 10^-5mol/L by UV-Visible spectrometric analysis. In kind it is nucleic-acid assay. Conditions: Bos taurus.
Assay [7] concerns Calf thymus DNA. The experiment in a line: Inhibition of neutral red binding to calf thymus DNA by UV-Visible spectrometric analysis. In kind it is nucleic-acid assay. The note with it: Bos taurus.
Assay [8] deals with Candida albicans. The assay can be described thus: Potency index, ratio of fluconazole MIC80 to compound MIC80 for Candida albicans. In kind it is functional.
The subject of assay [9] is Candida albicans. The assay can be described thus: Potency index, ratio of 5-fluorocytosine MIC80 to compound MIC80 for Candida albicans. In kind it is functional.

On to `O=c1nc(N(Cc2ccc(Cl)c(Cl)c2)CC(O)(Cn2cncn2)c2ccc(F)cc2F)c(F)c[nH]1` (stereo not drawn), for which the MIC80 in the assay on Candida albicans [1] was 8 µM (≈ 4.2 µg/mL); in the assay with Candida parapsilosis it was 30 µM (≈ 15.8 µg/mL); against Candida albicans [2] it was 20 µM (≈ 10.5 µg/mL); in the assay on Candida tropicalis, 30 µM (≈ 15.8 µg/mL); in the assay on Aspergillus fumigatus it was 30 µM (≈ 15.8 µg/mL). Also, the result in the assay with Candida albicans [3] and in the assay with Calf thymus DNA [6] was Active. The values for the Activity with Candida albicans [4] and in the assay on Calf thymus DNA [5] were over 3 log10CFU/ml and “Dose-dependent effect”, respectively. The K in the assay with Calf thymus DNA [5] worked out at 4.88 ×10³ L/mol. Also, the inhibition entry with Calf thymus DNA [7] was “Dose-dependent effect”. Besides, the Ratio in the assay with Candida albicans [8] and in the assay on Candida albicans [9] was 8 each time.

As for `CCCCCCCCCCN(CC(O)(Cn1cncn1)c1ccc(F)cc1F)c1nc(=O)[nH]cc1F` (stereo not drawn), the MIC80 in the assay with Candida albicans [1] is 2020 µM (≈ 1020 µg/mL); against Candida parapsilosis it was 1010 µM (≈ 512 µg/mL); against Candida albicans [2], 1010 µM (≈ 512 µg/mL); in the assay with Candida tropicalis, 1010 µM (≈ 512 µg/mL); in the assay with Aspergillus fumigatus, 2020 µM (≈ 1020 µg/mL).

Consider `C#CCN(CC(O)(Cn1cncn1)c1ccc(F)cc1F)c1nc(=O)[nH]cc1F` (stereo not drawn), for which the MIC80 in the assay on Candida albicans [1] worked out at 1260 µM (≈ 509 µg/mL); against Candida parapsilosis, 1260 µM (≈ 509 µg/mL); with Candida albicans [2], 310 µM (≈ 125 µg/mL); against Candida tropicalis it was 630 µM (≈ 255 µg/mL); in the assay with Aspergillus fumigatus, 630 µM (≈ 255 µg/mL).

For the compound `CCCCCCCCN(CC(O)(Cn1cncn1)c1ccc(F)cc1F)c1nc(=O)[nH]cc1F` (stereo not drawn), the MIC80 against Candida albicans [1] was 530 µM (≈ 254 µg/mL); against Candida parapsilosis it was 530 µM (≈ 254 µg/mL); in the assay on Candida albicans [2], 1060 µM (≈ 507 µg/mL); with Candida tropicalis, 1060 µM (≈ 507 µg/mL); against Aspergillus fumigatus it was 2130 µM (≈ 1020 µg/mL).

With `O=c1nc(N(Cc2ccccc2)CC(O)(Cn2cncn2)c2ccc(F)cc2F)c(F)c[nH]1` (stereo not drawn), the MIC80 against Candida albicans [1] amounted to 280 µM (≈ 128 µg/mL); in the assay with Candida parapsilosis it was 280 µM (≈ 128 µg/mL); in the assay with Candida albicans [2], 280 µM (≈ 128 µg/mL); against Candida tropicalis, 280 µM (≈ 128 µg/mL); with Aspergillus fumigatus, 140 µM (≈ 63.9 µg/mL).

As to `OC(Cn1cncn1)(Cn1cncn1)c1ccc(F)cc1F` [FLUCONAZOLE], the MIC80 in the assay on Candida albicans [1] was determined as 3 µM (≈ 0.919 µg/mL); in the assay on Candida parapsilosis, 6 µM (≈ 1.84 µg/mL); in the assay on Candida albicans [2], 200 µM (≈ 61.3 µg/mL); against Candida tropicalis, 830 µM (≈ 254 µg/mL); against Aspergillus fumigatus it was 1650 µM (≈ 505 µg/mL).

For the compound `O=c1nc(N(Cc2ccc(Cl)cc2)CC(O)(Cn2cncn2)c2ccc(F)cc2F)c(F)c[nH]1` (stereo not drawn), the MIC80 with Candida albicans [1], in the assay with Candida parapsilosis, against Candida albicans [2], against Candida tropicalis and against Aspergillus fumigatus was 130 µM (≈ 63.8 µg/mL) each time.

As for `CCCCCCCCCCCCN(CC(O)(Cn1cncn1)c1ccc(F)cc1F)c1nc(=O)[nH]cc1F` (stereo not drawn), the MIC80 against Candida albicans [1] was 1910 µM (≈ 1020 µg/mL); in the assay on Candida parapsilosis it was 950 µM (≈ 508 µg/mL); in the assay with Candida albicans [2], 950 µM (≈ 508 µg/mL); in the assay with Candida tropicalis, 950 µM (≈ 508 µg/mL); against Aspergillus fumigatus, 1910 µM (≈ 1020 µg/mL).

For the compound `CCCN(CC(O)(Cn1cncn1)c1ccc(F)cc1F)c1nc(=O)[nH]cc1F` (stereo not drawn), the MIC80 came to 310 µM (≈ 127 µg/mL) in the assay on Candida albicans [1]; 620 µM (≈ 253 µg/mL) against Candida parapsilosis; 310 µM (≈ 127 µg/mL) against Candida albicans [2]; 620 µM (≈ 253 µg/mL) in the assay on Candida tropicalis; 620 µM (≈ 253 µg/mL) against Aspergillus fumigatus.

As to `C=CCN(CC(O)(Cn1cncn1)c1ccc(F)cc1F)c1nc(=O)[nH]cc1F` (stereo not drawn), the MIC80 against Candida albicans [1] was 620 µM (≈ 252 µg/mL); against Candida parapsilosis, 1250 µM (≈ 508 µg/mL); against Candida albicans [2], 310 µM (≈ 126 µg/mL); in the assay with Candida tropicalis, 620 µM (≈ 252 µg/mL); against Aspergillus fumigatus it was 620 µM (≈ 252 µg/mL).

Regarding `O=c1nc(N(Cc2ccc(Cl)cc2Cl)CC(O)(Cn2cncn2)c2ccc(F)cc2F)c(F)c[nH]1` (stereo not drawn), the MIC80 against Candida albicans [1] stood at 120 µM (≈ 63 µg/mL); with Candida parapsilosis, 480 µM (≈ 252 µg/mL); against Candida albicans [2], 240 µM (≈ 126 µg/mL); against Candida tropicalis, 120 µM (≈ 63 µg/mL); in the assay on Aspergillus fumigatus, 240 µM (≈ 126 µg/mL).

On to `O=c1nc(NCC(O)(Cn2cncn2)c2ccc(F)cc2F)c(F)c[nH]1` (stereo not drawn), for which the MIC80 is 170 µM (≈ 62.3 µg/mL) against Candida albicans [1]; 170 µM (≈ 62.3 µg/mL) against Candida parapsilosis; 170 µM (≈ 62.3 µg/mL) in the assay on Candida albicans [2]; 40 µM (≈ 14.7 µg/mL) against Candida tropicalis; 80 µM (≈ 29.3 µg/mL) in the assay with Aspergillus fumigatus.

As for `CCCCCCCCCCCCCCCCN(CC(O)(Cn1cncn1)c1ccc(F)cc1F)c1nc(=O)[nH]cc1F` (stereo not drawn), the MIC80 in the assay with Candida albicans [1] came out at 1730 µM (≈ 1020 µg/mL); in the assay on Candida parapsilosis it was 860 µM (≈ 508 µg/mL); against Candida albicans [2] it was 860 µM (≈ 508 µg/mL); against Candida tropicalis, 860 µM (≈ 508 µg/mL); against Aspergillus fumigatus, 1770 µM (≈ 1050 µg/mL).

Regarding `O=c1nc(N(Cc2ccccc2F)CC(O)(Cn2cncn2)c2ccc(F)cc2F)c(F)c[nH]1` (stereo not drawn), the MIC80 against Candida albicans [1] came to 530 µM (≈ 251 µg/mL); in the assay with Candida parapsilosis, 530 µM (≈ 251 µg/mL); against Candida albicans [2], 260 µM (≈ 123 µg/mL); against Candida tropicalis, 530 µM (≈ 251 µg/mL); against Aspergillus fumigatus it was 530 µM (≈ 251 µg/mL).

For the compound `O=c1nc(N(Cc2ccccc2Cl)CC(O)(Cn2cncn2)c2ccc(F)cc2F)c(F)c[nH]1` (stereo not drawn), the MIC80 amounted to 260 µM (≈ 128 µg/mL) against Candida albicans [1]; 520 µM (≈ 255 µg/mL) in the assay on Candida parapsilosis; 130 µM (≈ 63.8 µg/mL) with Candida albicans [2]; 260 µM (≈ 128 µg/mL) in the assay with Candida tropicalis; 260 µM (≈ 128 µg/mL) against Aspergillus fumigatus.

As to `CCCCN(CC(O)(Cn1cncn1)c1ccc(F)cc1F)c1nc(=O)[nH]cc1F` (stereo not drawn), the MIC80 against Candida albicans [1] amounted to 300 µM (≈ 127 µg/mL); in the assay on Candida parapsilosis it was 300 µM (≈ 127 µg/mL); against Candida albicans [2], 300 µM (≈ 127 µg/mL); against Candida tropicalis, 600 µM (≈ 253 µg/mL); against Aspergillus fumigatus, 600 µM (≈ 253 µg/mL).

`CCCCCCN(CC(O)(Cn1cncn1)c1ccc(F)cc1F)c1nc(=O)[nH]cc1F` (stereo not drawn): the MIC80 was 560 µM (≈ 252 µg/mL) against Candida albicans [1]; 280 µM (≈ 126 µg/mL) in the assay on Candida parapsilosis; 560 µM (≈ 252 µg/mL) in the assay with Candida albicans [2]; 1130 µM (≈ 509 µg/mL) against Candida tropicalis; 560 µM (≈ 252 µg/mL) in the assay with Aspergillus fumigatus.

Turning to `Nc1nc(=O)[nH]cc1F` [FLUCYTOSINE], the MIC80 in the assay with Candida albicans [1] turned out to be 30 µM (≈ 3.87 µg/mL); in the assay on Candida parapsilosis, 990 µM (≈ 128 µg/mL); against Candida albicans [2] it was 490 µM (≈ 63.3 µg/mL); in the assay on Candida tropicalis, 1980 µM (≈ 256 µg/mL); against Aspergillus fumigatus, 1980 µM (≈ 256 µg/mL).

As for `O=c1nc(N(Cc2cccc(Cl)c2)CC(O)(Cn2cncn2)c2ccc(F)cc2F)c(F)c[nH]1` (stereo not drawn), the MIC80 in the assay on Candida albicans [1] was found to be 130 µM (≈ 63.8 µg/mL); against Candida parapsilosis it was 260 µM (≈ 128 µg/mL); in the assay with Candida albicans [2], 130 µM (≈ 63.8 µg/mL); in the assay with Candida tropicalis, 520 µM (≈ 255 µg/mL); in the assay with Aspergillus fumigatus, 130 µM (≈ 63.8 µg/mL).

`CCN(CC(O)(Cn1cncn1)c1ccc(F)cc1F)c1nc(=O)[nH]cc1F` (stereo not drawn): the MIC80 with Candida albicans [1] turned out to be 320 µM (≈ 126 µg/mL); with Candida parapsilosis, 320 µM (≈ 126 µg/mL); against Candida albicans [2], 160 µM (≈ 63.1 µg/mL); against Candida tropicalis it was 640 µM (≈ 252 µg/mL); against Aspergillus fumigatus, 640 µM (≈ 252 µg/mL).

On to `O=c1nc(N(Cc2ccc(F)cc2)CC(O)(Cn2cncn2)c2ccc(F)cc2F)c(F)c[nH]1` (stereo not drawn), for which the MIC80 came to 530 µM (≈ 251 µg/mL) against Candida albicans [1]; 530 µM (≈ 251 µg/mL) with Candida parapsilosis; 260 µM (≈ 123 µg/mL) against Candida albicans [2]; 530 µM (≈ 251 µg/mL) with Candida tropicalis; 260 µM (≈ 123 µg/mL) with Aspergillus fumigatus.

Regarding `CCCCCN(CC(O)(Cn1cncn1)c1ccc(F)cc1F)c1nc(=O)[nH]cc1F` (stereo not drawn), the MIC80 worked out at 580 µM (≈ 253 µg/mL) against Candida albicans [1]; 1170 µM (≈ 511 µg/mL) against Candida parapsilosis; 580 µM (≈ 253 µg/mL) against Candida albicans [2]; 290 µM (≈ 127 µg/mL) against Candida tropicalis; 580 µM (≈ 253 µg/mL) against Aspergillus fumigatus.
